US20120225862A1, “HETEROARYL BENZAMIDES, COMPOSITIONS AND METHODS OF USE” (AUCKLAND UNIVSERVICES LIMITED, priority 2009, published 2012)

How the values were obtained:
[1] = test system: RCC4; assay: XTT IC50 / viability assay, RCC4 cells; assay type: cell-based, human; conditions: Homo sapiens, RCC4, 96 h; XTT assay, four days
Experimental: (§1) RCC4 parental and RCC4 with VHL-reintroduced (RCC4/VHL), SN12C and SN12C-CSCG-VHL shRNA were maintained in DMEM supplemented with 10% FCS.
(§2) IC50 values for compounds were determined by XTT assay. For 2,3-bis[2-methoxy-4-nitro-5-sulfophenyl]-2H-tetrazolium-5-carboxanilide inner salt (XTT) assays, five thousand cells were plated in 96-well plates. The next day, vehicle or drug was added to each well and incubated for four days. Media was aspirated and phenol red-free medium with 0.3 mg/mL XTT and 2.65 ug/mL N-methyl dibenzopyrazine methyl sulfate was added. This was incubated at 37° C. for 1-2 hours and absorbance was read at 450 nm. IC50 values for each compound were calculated using linear interpolation.
(§3) For 2,3-bis[2-methoxy-4-nitro-5-sulfophenyl]-2H-tetrazolium-5-carboxanilide (XTT) assays, five thousand cells were plated in 96-well plates. The next day, vehicle (DMSO) or drug was added by serial dilution. Four days later, media were aspirated, XTT solution (0.3 mg/ml of XTT (Sigma), 2.65 mg/ml N-methyl dibenxopyrazine methyl sulfate (Simga) in phenol red-free media) was added, and the plates were incubated at 37° C. for 1-2 hours. Metabolism of XTT was quantified by measuring the absorbance at 450 nm. IC50s were calculated using linear interpolation. For clonogenic survival assays, three hundred cells were plated per 60 mm tissue culture dish. The cells were allowed to attach overnight and then treated with vehicle or drug for 14 days. Colonies were fixed and stained with crystal violet (0.1% crystal violet in 95% ethanol). All conditions were measured in triplicate and each experiment was done in duplicate or triplicate. To determine necrosis, cells were treated with drug for a given time point. Media and cells were collected, centrifugated, and resuspended in 0.4% trypan blue (Invitrogen). Live and dead cells were counted on a hematocytometer.

[2] = test system: RCC4/VHL; assay: XTT IC50 assay, selectivity RCC4 versus RCC4 with VHL-reintroduced; assay type: cell-based, human; conditions: selectivity ratio of XTT IC50 values, RCC4 vs RCC4/VHL
Experimental: as §1, §2, §3

Row | SMILES | IC50 [1] [µM] | Ratio (RCC4:RCC/VHL) [2]
1 | COc1ccc(S(=O)(=O)NCc2ccc(C(=O)Nc3cccnc3)cc2)cc1C(C)(C)C [Example 62, 4-((3-tert-Butyl-4-methoxyphenylsulfonamido)methyl)-N-(pyridin-3-yl)benzamide] | < 1 | c (“c” reflects a ratio of >100)
2 | O=C(Nc1cccnc1)c1ccc(CNS(=O)(=O)c2ccc(C#CCN3CCOCC3)cc2)cc1 [Example 136, 4-{[({4-[3-(4-Morpholinyl)-1-propynyl]phenyl}sulfonyl)amino]methyl}-N-(3-pyridinyl)benzamide] | < 1 | b (“b” reflects from 10 to 100)
3 | Cc1ccccc1S(=O)(=O)NCc1ccc(C(=O)Nc2cccnc2)cc1 [Example 10, 4-((2-Methylphenylsulfonamido)methyl)-N-(pyridin-3-yl)benzamide] | 1 to 20 | a (“a” reflects a ratio of RCC4/RCC-VHL+ ranging from 1 to 10)
4 | O=C(Nc1cccnc1)c1ccc(CNS(=O)(=O)c2ccc(N3CCCCC3)cc2)cc1 [Example 128, 4-[({[4-(1-Piperidinyl)phenyl]sulfonyl}amino)methyl]-N-(3-pyridinyl)benzamide] | < 1 | c (“c” reflects a ratio of >100)
5 | O=C(Nc1cccnc1)c1ccc(CNS(=O)(=O)c2cccc([N+](=O)[O-])c2)cc1 [Example 25, 4-((3-Nitrophenylsulfonamido)methyl)-N-(pyridin-3-yl)benzamide] | 1 to 20 | b (“b” reflects from 10 to 100)
6 | O=C(Nc1cccnc1)c1ccc(CNS(=O)(=O)c2ccc(Cl)c(Cl)c2)cc1 [Example 70, 4-((3,4-Dichlorophenylsulfonamido)methyl)-N-(pyridin-3-yl)benzamide] | 1 to 20 | b (“b” reflects from 10 to 100)
7 | O=C(Nc1cccnc1)c1ccc(CNS(=O)(=O)c2cccc(N3CCOCC3)c2)cc1 [Example 126, 4-[({[3-(4-Morpholinyl)phenyl]sulfonyl}amino)methyl]-N-(3-pyridinyl)benzamide] | 1 to 20 | b (“b” reflects from 10 to 100)
8 | CC(C)(C)c1ccc(S(=O)(=O)NCc2ccc(C(=O)Nc3cnccc3Cl)cc2)cc1 [Example 112, 4-({[(4-tert-Butylphenyl)sulfonyl]amino}methyl)-N-(4-chloro-3-pyridinyl)benzamide] | > 20 | a (“a” reflects a ratio of RCC4/RCC-VHL+ ranging from 1 to 10)
9 | Cc1ccc(S(=O)(=O)NCc2ccc(C(=O)Nc3cccnc3)cc2)cc1Cl [Example 69, 4-((3-Chloro-4-methylphenylsulfonamido)methyl)-N-(pyridin-3-yl)benzamide] | < 1 | b (“b” reflects from 10 to 100)
10 | Cc1ccc(S(=O)(=O)NCc2ccc(C(=O)Nc3cccnc3)cc2)cc1C [Example 65, 4-((3,4-Dimethylphenylsulfonamido)methyl)-N-(pyridin-3-yl)benzamide] | < 1 | c (“c” reflects a ratio of >100)
11 | CC(C)(C)c1ccc(S(=O)(=O)NCc2ccc(C(=O)Nc3cccnc3F)cc2)cc1 [Example 123, 4-({[(4-tert-Butylphenyl)sulfonyl]amino}methyl)-N-(2-fluoro-3-pyridinyl)benzamide] | 1 to 20 | a (“a” reflects a ratio of RCC4/RCC-VHL+ ranging from 1 to 10)
12 | O=C(Nc1cccnc1)c1ccc(CNS(=O)(=O)c2ccc3c(c2)CCC3)cc1 [Example 74, 4-((2,3-Dihydro-1H-indene-5-sulfonamido)methyl)-N-(pyridin-3-yl)benzamide] | < 1 | c (“c” reflects a ratio of >100)
13 | COC1CCN(Cc2ccc(S(=O)(=O)NCc3ccc(C(=O)Nc4cccnc4)cc3)cc2)CC1 [Example 84, 4-{[({4-[(4-Methoxy-1-piperidinyl)methyl]phenyl}sulfonyl)amino]methyl}-N-(3-pyridinyl)benzamide] | < 1 | c (“c” reflects a ratio of >100)
14 | Cc1ccc(S(=O)(=O)NCc2ccc(C(=O)Nc3cccnc3)cc2)cc1 [Example 36, 4-((4-Methylphenylsulfonamido)methyl)-N-(pyridin-3-yl)benzamide] | 1 to 20 | b (“b” reflects from 10 to 100)
15 | O=C(Nc1cccnc1)c1ccc(CNS(=O)(=O)c2ccc(CN3CCCCC3)cc2)cc1 [Example 81, 4-[({[4-(1-Piperidinylmethyl)phenyl]sulfonyl}amino)methyl]-N-(3-pyridinyl)benzamide] | < 1 | b (“b” reflects from 10 to 100)
16 | O=C(Nc1cccnc1)c1ccc(CNS(=O)(=O)c2ccc(-n3cccn3)cc2)cc1 [Example 58, 4-[({[4-(1H-Pyrazol-1-yl)phenyl]sulfonyl}amino)methyl]-N-(3-pyridinyl)benzamide] | 1 to 20 | a (“a” reflects a ratio of RCC4/RCC-VHL+ ranging from 1 to 10)
17 | CN(C)CCCc1ccc(S(=O)(=O)NCc2ccc(C(=O)Nc3cccnc3)cc2)cc1 [Example 142, 4-{[({4-[3-(Dimethylamino)propyl]phenyl}sulfonyl)amino]methyl}-N-(3-pyridinyl)benzamide] | < 1 | b (“b” reflects from 10 to 100)
18 | O=C(Nc1cccnc1)c1ccc(CNS(=O)(=O)c2ccc(CN3CCCCCC3)cc2)cc1 [Example 82, 4-[({[4-(1-Azepanylmethyl)phenyl]sulfonyl}amino)methyl]-N-(3-pyridinyl)benzamide] | < 1 | c (“c” reflects a ratio of >100)
19 | O=C(Nc1cccnc1)c1ccc(CNS(=O)(=O)c2cccc(C(F)(F)F)c2)cc1 [Example 23, N-(Pyridin-3-yl)-4-((3-(trifluoromethyl)phenylsulfonamido)methyl)benzamide] | < 1 | b (“b” reflects from 10 to 100)
20 | CN(C)Cc1ccc(S(=O)(=O)NCc2ccc(C(=O)Nc3cccnc3)cc2)cc1 [Example 77, 4-[({4-[(Dimethylamino)methyl]phenyl}sulfonyl)amino]methyl-N-(3-pyridinyl)benzamide] | < 1 | b (“b” reflects from 10 to 100)
21 | N#Cc1ccccc1S(=O)(=O)NCc1ccc(C(=O)Nc2cccnc2)cc1 [Example 16, 4-((2-Cyanophenylsulfonamido)methyl)-N-(pyridin-3-yl)benzamide] | > 20 | a (“a” reflects a ratio of RCC4/RCC-VHL+ ranging from 1 to 10)
22 | CC(=O)Nc1ccc(S(=O)(=O)NCc2ccc(C(=O)Nc3cccnc3)cc2)cc1 [Example 42, 4-((4-Acetamidophenylsulfonamido)methyl)-N-(pyridin-3-yl)benzamide] | 1 to 20 | a (“a” reflects a ratio of RCC4/RCC-VHL+ ranging from 1 to 10)
23 | CN(C)CC#Cc1ccc(S(=O)(=O)NCc2ccc(C(=O)Nc3cccnc3)cc2)cc1 [Example 137, 4-{[({4-[3-(Dimethylamino)-1-propynyl]phenyl}sulfonyl)amino]methyl}-N-(3-pyridinyl)benzamide] | < 1 | b (“b” reflects from 10 to 100)
24 | O=C(Nc1cccnc1)c1ccc(CNS(=O)(=O)c2ccc(N3CCOCC3)cc2)cc1 [Example 127, 4-[({[4-(4-Morpholinyl)phenyl]sulfonyl}amino)methyl]-N-(3-pyridinyl)benzamide] | < 1 | b (“b” reflects from 10 to 100)
